Earlier results, collected in patent US20090131263A1, “Normalization methods for G-protein coupled receptor membrane array” (priority 2007, published 2009).

Columns and labels:
Gs = Gs (Homo sapiens, UniProt P63092); conditions: unactivated form of G protein Gs, reconstituted vesicle systems
Gi2 = Gi2 (Homo sapiens, UniProt P04899); conditions: unactivated form of G protein Gi2, reconstituted vesicle systems
Gi1 = Gi1 (Homo sapiens, UniProt P63096); conditions: unactivated form of G protein Gi1, reconstituted vesicle systems
Go = Go (Homo sapiens, UniProt P09471); conditions: unactivated form of G protein Go, reconstituted vesicle systems
Chain of Go (P09471 whole entry): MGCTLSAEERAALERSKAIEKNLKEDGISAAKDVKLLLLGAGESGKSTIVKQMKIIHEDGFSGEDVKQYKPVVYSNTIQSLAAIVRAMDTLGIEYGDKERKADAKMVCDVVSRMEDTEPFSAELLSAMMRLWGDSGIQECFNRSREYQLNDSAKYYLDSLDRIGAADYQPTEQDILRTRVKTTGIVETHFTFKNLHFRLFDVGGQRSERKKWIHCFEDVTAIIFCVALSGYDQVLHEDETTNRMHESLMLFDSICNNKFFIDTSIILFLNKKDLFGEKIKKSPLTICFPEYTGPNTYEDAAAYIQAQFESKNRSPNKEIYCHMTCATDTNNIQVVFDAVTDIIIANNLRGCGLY

Chain of Gi2 (P04899 whole entry): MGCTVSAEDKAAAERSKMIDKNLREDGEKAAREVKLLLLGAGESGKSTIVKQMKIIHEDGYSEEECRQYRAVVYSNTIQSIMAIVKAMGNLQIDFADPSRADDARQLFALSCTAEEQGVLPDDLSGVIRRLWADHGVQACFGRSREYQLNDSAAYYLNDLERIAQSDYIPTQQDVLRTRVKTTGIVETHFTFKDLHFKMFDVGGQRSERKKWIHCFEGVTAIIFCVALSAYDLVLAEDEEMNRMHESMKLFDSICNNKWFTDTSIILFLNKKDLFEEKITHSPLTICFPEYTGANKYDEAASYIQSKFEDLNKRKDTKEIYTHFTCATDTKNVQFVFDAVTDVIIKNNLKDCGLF
Chain of Gs (P63092 whole entry): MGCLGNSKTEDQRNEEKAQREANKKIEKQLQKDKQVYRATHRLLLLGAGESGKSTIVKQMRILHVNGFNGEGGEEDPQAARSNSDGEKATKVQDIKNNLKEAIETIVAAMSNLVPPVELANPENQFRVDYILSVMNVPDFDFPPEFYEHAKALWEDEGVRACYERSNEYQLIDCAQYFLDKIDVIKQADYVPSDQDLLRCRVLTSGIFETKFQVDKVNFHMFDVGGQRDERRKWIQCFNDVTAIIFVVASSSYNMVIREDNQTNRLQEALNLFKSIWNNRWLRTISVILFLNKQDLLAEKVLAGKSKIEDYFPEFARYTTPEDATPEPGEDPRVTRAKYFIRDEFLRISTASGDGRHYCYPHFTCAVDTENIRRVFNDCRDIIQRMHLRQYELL
Chain of Gi1 (P63096 whole entry): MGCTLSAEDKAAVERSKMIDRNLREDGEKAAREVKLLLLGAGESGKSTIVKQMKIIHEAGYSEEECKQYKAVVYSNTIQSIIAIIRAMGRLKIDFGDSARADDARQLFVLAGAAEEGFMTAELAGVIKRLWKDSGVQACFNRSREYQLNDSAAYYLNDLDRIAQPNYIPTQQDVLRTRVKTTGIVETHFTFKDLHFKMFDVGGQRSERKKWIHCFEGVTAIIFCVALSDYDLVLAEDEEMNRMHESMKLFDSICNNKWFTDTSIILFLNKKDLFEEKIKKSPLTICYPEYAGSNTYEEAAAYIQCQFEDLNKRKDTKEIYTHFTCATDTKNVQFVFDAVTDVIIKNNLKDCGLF

## BODIPY-FL-GTPγS
Gs
  Kd: 70 nM
Gi2
  Kd: 300 nM
Gi1
  Kd: 150 nM
Go
  Kd: 6 nM
